Laboratory results reported in PubChem BioAssay AID256 (DTP/NCI, 2004).
Values joined by “and” are separate entries in the source; they are usually repeats but may differ in a detail not shown here. Identical values can stand only once. Toxic doses and inconclusive results are not listed. Rule for the calls: active = survival T/C of 150% or more; inactive = T/C below 125% in these data.

System: CD2F1 mice, L1210 leukemia ip, survival T/C
Assay: NCI In Vivo Anticancer Drug Screen. Data for tumor model L1210 Leukemia (intraperitoneal) in CD2F1 (CDF1) mice
Details: higher = longer survival
Procedure, shortened: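 Read-out first: treated-group measurement over vehicle-control measurement, expressed as a ratio. Animals bore a transplanted tumor line and were dosed with compound or vehicle.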

[1] = endpoint: mean survival time, dose: 12.5 mg/kg/injection, schedule: Q01DX009 (ip), vehicle: saline with Tween-80
[2] = endpoint: mean survival time, dose: 12.5 mg/kg/injection, schedule: Q04DX003 (ip), vehicle: saline with Tween-80
[3] = endpoint: mean survival time, dose: 25.0 mg/kg/injection, schedule: Q01DX009 (ip), vehicle: saline with Tween-80
[4] = endpoint: mean survival time, dose: 50.0 mg/kg/injection, schedule: Q01DX009 (ip), vehicle: saline with Tween-80
[5] = endpoint: mean survival time, dose: 100.0 mg/kg/injection, schedule: Q04DX002 (ip), vehicle: saline with Tween-80
[6] = endpoint: mean survival time, dose: 200.0 mg/kg/injection, schedule: Q04DX002 (ip), vehicle: saline with Tween-80
[7] = endpoint: mean survival time, dose: 100.0 mg/kg/injection, schedule: Q01DX001 (ip), vehicle: saline with Tween-80
[8] = endpoint: mean survival time, dose: 200.0 mg/kg/injection, schedule: Q01DX001 (ip), vehicle: saline with Tween-80
[9] = endpoint: mean survival time, dose: 400.0 mg/kg/injection, schedule: Q01DX001 (ip), vehicle: saline with Tween-80
[10] = endpoint: mean survival time, dose: 100.0 mg/kg/injection, schedule: Q01DX009 (ip), vehicle: saline with Tween-80
[11] = endpoint: mean survival time, dose: 200.0 mg/kg/injection, schedule: Q01DX009 (ip), vehicle: saline with Tween-80
[12] = endpoint: mean survival time, dose: 400.0 mg/kg/injection, schedule: Q01DX009 (ip), vehicle: saline with Tween-80
[13] = endpoint: mean survival time, dose: 100.0 mg/kg/injection, schedule: Q04DX003 (ip), vehicle: saline with Tween-80
[14] = endpoint: mean survival time, dose: 200.0 mg/kg/injection, schedule: Q04DX003 (ip), vehicle: saline with Tween-80
[15] = endpoint: mean survival time, dose: 100.0 mg/kg/injection, schedule: Q01DX009 (ip), vehicle: saline
[16] = endpoint: mean survival time, dose: 200.0 mg/kg/injection, schedule: Q01DX009 (ip), vehicle: saline
[17] = endpoint: mean survival time, dose: 400.0 mg/kg/injection, schedule: Q01DX009 (ip), vehicle: saline

Measured: T/C

COc1ccc2[nH]cc(CCN(C)C)c2c1
inactive: [1] 94 % of control | [2] 100 % of control | [3] 91 % of control | endpoint: mean survival time, dose: 25.0 mg/kg/injection, schedule: Q04DX003 (ip), vehicle: saline with Tween-80 95 % of control | [4] 92 % of control | endpoint: mean survival time, dose: 50.0 mg/kg/injection, schedule: Q04DX003 (ip), vehicle: saline with Tween-80 96 % of control

Cc1ccc(OC(=O)Nc2cccc3ccccc23)cc1C
inactive: [5] 95 % of control | [6] 91 % of control

NC(=S)OCCCCCn1cnc2c(=S)nc[nH]c21
inactive: [7] 95 % of control | [8] 97 % of control | [9] 105 % of control

O=C1C=C2C(=CCOC2O)O1 (stereo not drawn)
inactive: endpoint: mean survival time, dose: 0.25 mg/kg/injection, schedule: Q01DX009 (ip), vehicle: Klucel (hydroxypropylcellulose) (HPC) 108 % of control | endpoint: mean survival time, dose: 0.5 mg/kg/injection, schedule: Q01DX009 (ip), vehicle: Klucel (hydroxypropylcellulose) (HPC) 89 % of control and 106 % of control | endpoint: mean survival time, dose: 0.75 mg/kg/injection, schedule: Q01DX009 (ip), vehicle: Klucel (hydroxypropylcellulose) (HPC) 103 % of control | endpoint: mean survival time, dose: 1.0 mg/kg/injection, schedule: Q01DX009 (ip), vehicle: Klucel (hydroxypropylcellulose) (HPC) 101 % of control and 104 % of control | endpoint: mean survival time, dose: 1.5 mg/kg/injection, schedule: Q01DX009 (ip), vehicle: Klucel (hydroxypropylcellulose) (HPC) 104 % of control | endpoint: mean survival time, dose: 2.0 mg/kg/injection, schedule: Q01DX009 (ip), vehicle: Klucel (hydroxypropylcellulose) (HPC) 102 % of control and 103 % of control | endpoint: mean survival time, dose: 3.0 mg/kg/injection, schedule: Q01DX009 (ip), vehicle: Klucel (hydroxypropylcellulose) (HPC) 104 % of control | endpoint: mean survival time, dose: 4.0 mg/kg/injection, schedule: Q01DX009 (ip), vehicle: Klucel (hydroxypropylcellulose) (HPC) 95 % of control and 106 % of control | endpoint: mean survival time, dose: 6.0 mg/kg/injection, schedule: Q01DX009 (ip), vehicle: Klucel (hydroxypropylcellulose) (HPC) 96 % of control

CS(=O)(=O)OCCN(CCOS(C)(=O)=O)c1cccc(C(F)(F)F)c1
inactive: endpoint: mean survival time, dose: 6.25 mg/kg/injection, schedule: Q01DX015 (ip), vehicle: saline 113 % of control | endpoint: mean survival time, dose: 12.5 mg/kg/injection, schedule: Q01DX015 (ip), vehicle: saline 119 % of control | endpoint: mean survival time, dose: 25.0 mg/kg/injection, schedule: Q01DX015 (ip), vehicle: saline 107 % of control | endpoint: mean survival time, dose: 50.0 mg/kg/injection, schedule: Q01DX015 (ip), vehicle: saline 98 % of control

CC(=O)O/N=C(\C(c1ccccc1)c1ccccc1)C1c2ccccc2-c2ccccc21
inactive: [7] 87 % of control | [8] 87 % of control | [9] 90 % of control

CC(C)(C)C1CCC(=O)C1 (stereo not drawn)
inactive: [1] 87 % of control | [3] 95 % of control

CCOc1ccc2ccccc2c1C(=O)N(CCCl)CCCl
inactive: [3] 94 % of control | [10] 104 % of control

C/C=C/C(Cc1ccc2ccccc2c1)(C(=O)OCC)C(=O)OCC
inactive: endpoint: mean survival time, dose: 50.0 mg/kg/injection, schedule: Q01DX009 (ip), vehicle: Klucel (hydroxypropylcellulose) (HPC) 91 % of control | endpoint: mean survival time, dose: 100.0 mg/kg/injection, schedule: Q01DX009 (ip), vehicle: Klucel (hydroxypropylcellulose) (HPC) 88 % of control | endpoint: mean survival time, dose: 200.0 mg/kg/injection, schedule: Q01DX009 (ip), vehicle: Klucel (hydroxypropylcellulose) (HPC) 94 % of control

CNC(=O)Nc1nncs1
inactive: [10] 97 % of control | [11] 104 % of control | [12] 92 % of control

Nc1ccc2ccc(N)cc2c1
inactive: endpoint: median survival time, dose: 25.0 mg/kg/injection, schedule: Q01DX009 (ip), vehicle: saline with Tween-80 98 % of control | endpoint: median survival time, dose: 50.0 mg/kg/injection, schedule: Q01DX009 (ip), vehicle: saline with Tween-80 100 % of control | endpoint: median survival time, dose: 100.0 mg/kg/injection, schedule: Q01DX009 (ip), vehicle: saline with Tween-80 100 % of control | endpoint: median survival time, dose: 200.0 mg/kg/injection, schedule: Q01DX009 (ip), vehicle: saline with Tween-80 105 % of control

O=S(=O)(CCCl)c1ccc(Cl)cc1
inactive: [5] 96 % of control | [6] 101 % of control

CCOP(=O)(N=S=O)OCC
inactive: endpoint: mean survival time, dose: 12.5 mg/kg/injection, schedule: Q04DX003 (ip), vehicle: saline 100 % of control | endpoint: mean survival time, dose: 25.0 mg/kg/injection, schedule: Q04DX003 (ip), vehicle: saline 103 % of control | endpoint: mean survival time, dose: 50.0 mg/kg/injection, schedule: Q04DX003 (ip), vehicle: saline 113 % of control

CC1(C)CCC2(CC1)CC(=O)OC(=O)C2
inactive: [7] 90 % of control | [8] 87 % of control | [9] 92 % of control

CC(C)CCCC(C)C1CCC2C3CCC4CC5OCC(O)CC5CC4(C)C3CCC12C (stereo not drawn)
inactive: [10] 96 % of control | [11] 100 % of control | [12] 96 % of control

Cc1ccc(C(=O)c2ccc([N+](=O)[O-])cc2)cc1
inactive: [13] 94 % of control | [14] 94 % of control

N#CC(C#N)=C(C#N)c1ccccc1
inactive: [1] 96 % of control | [3] 98 % of control | endpoint: mean survival time, dose: 50.0 mg/kg/injection, schedule: Q01DX001 (ip), vehicle: saline with Tween-80 94 % of control | [4] 94 % of control

COc1ccc2c(NCCCCCCCCNc3c4ccccc4nc4cc(OC)ccc34)c3ccccc3nc2c1
inactive: endpoint: mean survival time, dose: 0.47 mg/kg/injection, schedule: Q01DX009 (ip), vehicle: distilled water + alcohol 116 % of control | endpoint: mean survival time, dose: 0.94 mg/kg/injection, schedule: Q01DX009 (ip), vehicle: distilled water + alcohol 120 % of control and 112 % of control | endpoint: mean survival time, dose: 1.87 mg/kg/injection, schedule: Q01DX009 (ip), vehicle: distilled water + alcohol 120 % of control | endpoint: mean survival time, dose: 1.88 mg/kg/injection, schedule: Q01DX009 (ip), vehicle: distilled water + alcohol 113 % of control and 112 % of control | endpoint: median survival time, dose: 0.5 mg/kg/injection, schedule: Q01DX009 (ip), vehicle: distilled water + alcohol 120 % of control | endpoint: median survival time, dose: 1.0 mg/kg/injection, schedule: Q01DX009 (ip), vehicle: distilled water + alcohol 118 % of control | endpoint: median survival time, dose: 2.0 mg/kg/injection, schedule: Q01DX009 (ip), vehicle: distilled water + alcohol 121 % of control | endpoint: median survival time, dose: 4.0 mg/kg/injection, schedule: Q01DX009 (ip), vehicle: distilled water + alcohol 124 % of control

COC(=O)C(N)Cc1ccc(O)c(O)c1 (stereo not drawn)
inactive: endpoint: mean survival time, dose: 12.5 mg/kg/injection, schedule: Q01DX009 (ip), vehicle: saline 101 % of control and 107 % of control | endpoint: mean survival time, dose: 25.0 mg/kg/injection, schedule: Q01DX009 (ip), vehicle: saline 101 % of control and 107 % of control | endpoint: mean survival time, dose: 50.0 mg/kg/injection, schedule: Q01DX009 (ip), vehicle: saline 95 % of control and 103 % of control | [15] 94 % of control and 103 % of control and 107 % of control | [16] 113 % of control and 101 % of control and 110 % of control | [17] 117 % of control and 110 % of control (2×) | endpoint: mean survival time, dose: 800.0 mg/kg/injection, schedule: Q01DX009 (ip), vehicle: saline 116 % of control and 123 % of control

C(=C\c1ccccn1)/c1ccccc1
inactive: [7] 100 % of control | [10] 94 % of control | [8] 89 % of control | [11] 101 % of control | [9] 92 % of control

CCC(CC)c1ccccn1
inactive: [15] 115 % of control | endpoint: mean survival time, dose: 100.0 mg/kg/injection, schedule: Q04DX003 (ip), vehicle: saline 99 % of control | [16] 120 % of control | endpoint: mean survival time, dose: 200.0 mg/kg/injection, schedule: Q04DX003 (ip), vehicle: saline 99 % of control | [17] 117 % of control | endpoint: mean survival time, dose: 400.0 mg/kg/injection, schedule: Q04DX003 (ip), vehicle: saline 110 % of control

O=C(O)c1ccccc1NO
inactive: [13] 90 % of control | [14] 98 % of control | endpoint: mean survival time, dose: 400.0 mg/kg/injection, schedule: Q04DX003 (ip), vehicle: saline with Tween-80 90 % of control

CCCCCCCN=NC
inactive: endpoint: mean survival time, dose: 75.0 mg/kg/injection, schedule: Q01DX001 (ip), vehicle: other 96 % of control | endpoint: mean survival time, dose: 150.0 mg/kg/injection, schedule: Q01DX001 (ip), vehicle: other 100 % of control | endpoint: mean survival time, dose: 300.0 mg/kg/injection, schedule: Q01DX001 (ip), vehicle: other 93 % of control

CCCCCOP(N)(=O)OCCCCC
inactive: [5] 88 % of control | [6] 92 % of control | endpoint: mean survival time, dose: 400.0 mg/kg/injection, schedule: Q04DX002 (ip), vehicle: saline with Tween-80 100 % of control

CC1=NN(c2ccccc2)C(=O)/C1=C/N(C)C
inactive: endpoint: mean survival time, dose: 3.13 mg/kg/injection, schedule: Q01DX009 (ip), vehicle: saline with Tween-80 103 % of control | endpoint: mean survival time, dose: 6.25 mg/kg/injection, schedule: Q01DX009 (ip), vehicle: saline with Tween-80 97 % of control | endpoint: mean survival time, dose: 6.25 mg/kg/injection, schedule: Q04DX003 (ip), vehicle: saline with Tween-80 95 % of control | [1] 100 % of control | [2] 90 % of control
